Assay results from the kinase profiling compilation of Christmann-Franck et al. (2016).

Columns and labels:
Assay in all cases: KINOMEscan competition binding
Conditions in all cases: compound 10.0 µM
ADCK4 (human) = ADCK4 (human) (UniProt Q96D53)
ALK (human) = ALK (human) (UniProt Q9UM73)
CAMK2D (human) = CAMK2D (human) (UniProt Q13557)
CAMK4 (human) = CAMK4 (human) (UniProt Q16566)
CAMKK2 (human) = CAMKK2 (human) (UniProt Q96RR4)
CDK16 (human) = CDK16 (human) (UniProt Q00536)
CHEK1 (human) = CHEK1 (human) (UniProt O14757)
CIT (human) = CIT (human) (UniProt O14578)
CLK2 (human) = CLK2 (human) (UniProt P49760)
CSF1R (human) = CSF1R (human) (UniProt P07333)
CSNK1D (human) = CSNK1D (human) (UniProt P48730)
EPHA4 (human) = EPHA4 (human) (UniProt P54764)
ERBB4 (human) = ERBB4 (human) (UniProt Q15303)
FER (human) = FER (human) (UniProt P16591)
FGFR1 (human) = FGFR1 (human) (UniProt P11362)
[1] = test system: FLT3 (human), P36888 [ITD]
HCK (human) = HCK (human) (UniProt P08631)
HCK (human), sequence (P08631 whole entry, looked up): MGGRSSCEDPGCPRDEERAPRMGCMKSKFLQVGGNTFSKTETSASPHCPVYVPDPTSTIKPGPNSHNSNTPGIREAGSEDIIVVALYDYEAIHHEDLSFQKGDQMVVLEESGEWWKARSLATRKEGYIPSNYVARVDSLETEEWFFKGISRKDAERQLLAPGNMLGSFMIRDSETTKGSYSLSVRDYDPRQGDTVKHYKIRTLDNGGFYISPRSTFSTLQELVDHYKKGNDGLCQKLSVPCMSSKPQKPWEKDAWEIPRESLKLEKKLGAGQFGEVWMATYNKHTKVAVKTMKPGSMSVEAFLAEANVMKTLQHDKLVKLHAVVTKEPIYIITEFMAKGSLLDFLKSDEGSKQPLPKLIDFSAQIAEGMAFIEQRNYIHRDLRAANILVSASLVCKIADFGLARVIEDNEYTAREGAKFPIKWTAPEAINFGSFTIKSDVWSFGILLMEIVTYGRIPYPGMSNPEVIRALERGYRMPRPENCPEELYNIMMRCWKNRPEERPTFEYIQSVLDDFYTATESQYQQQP

HIPK1 (human) = HIPK1 (human) (UniProt Q86Z02)
INSR (human) = INSR (human) (UniProt P06213)
IRAK3 (human) = IRAK3 (human) (UniProt Q9Y616)
LCK (human) = LCK (human) (UniProt P06239)
LIMK2 (human) = LIMK2 (human) (UniProt P53671)
MAP3K7 (human) = MAP3K7 (human) (UniProt O43318)
MAP3K9 (human) = MAP3K9 (human) (UniProt P80192)
MAPK14 (human) = MAPK14 (human) (UniProt Q16539)
MAPK14 (human), sequence (Q16539 whole entry, looked up): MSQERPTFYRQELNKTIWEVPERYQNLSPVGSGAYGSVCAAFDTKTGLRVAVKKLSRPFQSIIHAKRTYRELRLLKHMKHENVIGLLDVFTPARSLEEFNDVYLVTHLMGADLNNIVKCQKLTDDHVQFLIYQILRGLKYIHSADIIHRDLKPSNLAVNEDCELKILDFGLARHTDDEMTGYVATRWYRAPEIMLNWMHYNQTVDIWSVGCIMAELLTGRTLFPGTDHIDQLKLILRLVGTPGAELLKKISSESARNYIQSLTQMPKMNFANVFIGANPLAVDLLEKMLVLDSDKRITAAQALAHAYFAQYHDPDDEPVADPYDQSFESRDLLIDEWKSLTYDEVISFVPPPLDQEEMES

MAPK7 (human) = MAPK7 (human) (UniProt Q13164)
MARK4 (human) = MARK4 (human) (UniProt Q96L34)
MERTK (human) = MERTK (human) (UniProt Q12866)
MINK1 (human) = MINK1 (human) (UniProt Q8N4C8)
MYLK (human) = MYLK (human) (UniProt Q15746)
NEK1 (human) = NEK1 (human) (UniProt Q96PY6)
NEK1 (human), sequence (Q96PY6 whole entry, looked up): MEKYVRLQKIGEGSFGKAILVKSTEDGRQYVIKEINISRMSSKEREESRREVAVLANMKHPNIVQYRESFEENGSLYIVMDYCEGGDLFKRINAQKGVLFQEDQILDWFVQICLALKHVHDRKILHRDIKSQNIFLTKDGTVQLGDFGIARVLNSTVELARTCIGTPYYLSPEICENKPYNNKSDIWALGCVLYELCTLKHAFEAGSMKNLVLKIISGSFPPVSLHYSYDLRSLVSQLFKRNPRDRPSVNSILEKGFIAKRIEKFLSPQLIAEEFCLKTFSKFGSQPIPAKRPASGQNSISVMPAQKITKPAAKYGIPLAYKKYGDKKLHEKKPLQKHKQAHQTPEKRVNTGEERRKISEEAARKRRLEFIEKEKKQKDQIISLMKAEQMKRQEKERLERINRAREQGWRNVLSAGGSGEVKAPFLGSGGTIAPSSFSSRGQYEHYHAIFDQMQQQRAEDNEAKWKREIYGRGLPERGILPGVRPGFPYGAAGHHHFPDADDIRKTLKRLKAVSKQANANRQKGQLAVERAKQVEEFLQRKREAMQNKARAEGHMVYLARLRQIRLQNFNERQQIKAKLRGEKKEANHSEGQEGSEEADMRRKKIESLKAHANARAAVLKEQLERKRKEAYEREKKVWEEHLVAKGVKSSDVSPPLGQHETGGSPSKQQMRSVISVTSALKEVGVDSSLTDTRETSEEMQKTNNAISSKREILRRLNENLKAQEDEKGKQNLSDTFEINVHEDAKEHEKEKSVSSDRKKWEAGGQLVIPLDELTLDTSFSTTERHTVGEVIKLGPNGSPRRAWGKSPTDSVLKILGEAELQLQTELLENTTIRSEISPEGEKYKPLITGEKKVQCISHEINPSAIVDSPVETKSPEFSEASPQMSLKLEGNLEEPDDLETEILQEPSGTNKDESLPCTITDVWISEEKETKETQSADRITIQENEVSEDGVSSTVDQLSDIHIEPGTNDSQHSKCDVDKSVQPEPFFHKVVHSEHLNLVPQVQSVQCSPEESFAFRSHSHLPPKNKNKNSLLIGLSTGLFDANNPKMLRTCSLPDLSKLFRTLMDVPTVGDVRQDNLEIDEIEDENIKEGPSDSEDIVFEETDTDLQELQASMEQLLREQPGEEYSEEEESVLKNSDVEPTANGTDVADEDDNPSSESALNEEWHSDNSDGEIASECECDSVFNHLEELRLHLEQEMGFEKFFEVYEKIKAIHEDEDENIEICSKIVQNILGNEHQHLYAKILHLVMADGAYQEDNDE

NEK6 (human) = NEK6 (human) (UniProt Q9HC98)
PAK2 (human) = PAK2 (human) (UniProt Q13177)
PDGFRA (human) = PDGFRA (human) (UniProt P16234)
PLK4 (human) = PLK4 (human) (UniProt O00444)
PLK4 (human), sequence (O00444 whole entry, looked up): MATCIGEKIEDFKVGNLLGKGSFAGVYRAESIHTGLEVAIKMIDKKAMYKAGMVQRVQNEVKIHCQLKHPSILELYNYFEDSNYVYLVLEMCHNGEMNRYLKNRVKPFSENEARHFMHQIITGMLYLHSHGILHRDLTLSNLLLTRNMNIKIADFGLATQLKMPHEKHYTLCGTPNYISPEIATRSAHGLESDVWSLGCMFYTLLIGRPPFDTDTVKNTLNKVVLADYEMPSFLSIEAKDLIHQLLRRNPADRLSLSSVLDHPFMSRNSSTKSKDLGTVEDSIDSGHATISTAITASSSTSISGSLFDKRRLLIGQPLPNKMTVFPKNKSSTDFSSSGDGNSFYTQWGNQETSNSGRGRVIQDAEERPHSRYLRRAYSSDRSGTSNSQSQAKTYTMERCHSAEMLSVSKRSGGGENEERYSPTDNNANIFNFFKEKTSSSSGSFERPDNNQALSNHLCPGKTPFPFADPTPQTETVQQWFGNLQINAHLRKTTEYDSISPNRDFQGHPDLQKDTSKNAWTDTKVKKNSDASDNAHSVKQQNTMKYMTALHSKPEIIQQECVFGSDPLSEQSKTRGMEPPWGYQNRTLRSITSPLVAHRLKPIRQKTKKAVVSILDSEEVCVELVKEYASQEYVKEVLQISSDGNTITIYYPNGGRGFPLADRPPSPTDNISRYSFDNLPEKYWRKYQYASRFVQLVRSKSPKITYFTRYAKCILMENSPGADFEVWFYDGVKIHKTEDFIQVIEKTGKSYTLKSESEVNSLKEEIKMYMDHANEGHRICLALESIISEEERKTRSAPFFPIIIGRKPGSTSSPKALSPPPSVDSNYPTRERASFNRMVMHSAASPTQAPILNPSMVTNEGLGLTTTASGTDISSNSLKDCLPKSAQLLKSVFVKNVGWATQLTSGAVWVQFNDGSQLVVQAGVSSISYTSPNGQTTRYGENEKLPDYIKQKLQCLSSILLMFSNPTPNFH

PRKACB (human) = PRKACB (human) (UniProt P22694)
PTK6 (human) = PTK6 (human) (UniProt Q13882)
RAF1 (human) = RAF1 (human) (UniProt P04049)
STK11 (human) = STK11 (human) (UniProt Q15831)
STK11 (human), sequence (Q15831 whole entry, looked up): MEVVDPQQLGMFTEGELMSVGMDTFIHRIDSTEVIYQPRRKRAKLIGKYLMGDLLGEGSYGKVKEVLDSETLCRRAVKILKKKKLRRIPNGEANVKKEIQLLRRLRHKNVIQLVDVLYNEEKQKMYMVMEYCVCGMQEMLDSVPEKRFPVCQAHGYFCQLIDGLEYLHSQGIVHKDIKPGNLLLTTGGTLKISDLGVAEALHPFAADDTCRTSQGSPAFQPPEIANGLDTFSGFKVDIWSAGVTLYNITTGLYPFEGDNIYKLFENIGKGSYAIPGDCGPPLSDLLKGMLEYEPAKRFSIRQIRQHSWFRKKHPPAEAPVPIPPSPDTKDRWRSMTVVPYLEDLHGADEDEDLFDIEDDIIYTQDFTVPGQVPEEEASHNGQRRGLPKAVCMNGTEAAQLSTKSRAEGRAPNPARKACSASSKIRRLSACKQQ

TLK2 (human) = TLK2 (human) (UniProt Q86UE8)
TSSK1B (human) = TSSK1B (human) (UniProt Q9BXA7)
TSSK1B (human), sequence (Q9BXA7 whole entry, looked up): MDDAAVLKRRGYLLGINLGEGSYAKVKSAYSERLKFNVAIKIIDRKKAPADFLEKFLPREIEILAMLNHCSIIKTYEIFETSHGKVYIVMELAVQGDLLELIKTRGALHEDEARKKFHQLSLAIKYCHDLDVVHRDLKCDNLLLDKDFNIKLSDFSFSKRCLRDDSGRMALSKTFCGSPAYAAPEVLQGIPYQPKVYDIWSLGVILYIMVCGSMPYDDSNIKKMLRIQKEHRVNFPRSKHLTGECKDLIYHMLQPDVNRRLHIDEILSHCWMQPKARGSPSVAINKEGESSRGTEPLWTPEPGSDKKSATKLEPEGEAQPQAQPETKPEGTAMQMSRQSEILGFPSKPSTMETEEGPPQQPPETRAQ

ADCK4 (human), sequence (Q96D53 whole entry, looked up): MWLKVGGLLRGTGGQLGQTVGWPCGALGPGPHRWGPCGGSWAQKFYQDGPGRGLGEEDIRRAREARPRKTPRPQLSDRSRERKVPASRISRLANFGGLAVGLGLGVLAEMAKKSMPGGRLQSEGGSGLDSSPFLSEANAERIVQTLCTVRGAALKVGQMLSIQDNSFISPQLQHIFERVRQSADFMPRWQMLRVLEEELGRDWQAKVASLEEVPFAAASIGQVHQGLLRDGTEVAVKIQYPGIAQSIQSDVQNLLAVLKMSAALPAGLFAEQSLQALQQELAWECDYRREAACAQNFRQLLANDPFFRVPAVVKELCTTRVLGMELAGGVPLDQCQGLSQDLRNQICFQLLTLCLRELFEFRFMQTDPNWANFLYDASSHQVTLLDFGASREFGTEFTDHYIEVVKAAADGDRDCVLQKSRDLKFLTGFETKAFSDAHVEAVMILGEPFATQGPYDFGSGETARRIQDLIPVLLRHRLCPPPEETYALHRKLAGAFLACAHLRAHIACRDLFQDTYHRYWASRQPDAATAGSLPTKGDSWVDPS
CDK16 (human), sequence (Q00536 whole entry, looked up): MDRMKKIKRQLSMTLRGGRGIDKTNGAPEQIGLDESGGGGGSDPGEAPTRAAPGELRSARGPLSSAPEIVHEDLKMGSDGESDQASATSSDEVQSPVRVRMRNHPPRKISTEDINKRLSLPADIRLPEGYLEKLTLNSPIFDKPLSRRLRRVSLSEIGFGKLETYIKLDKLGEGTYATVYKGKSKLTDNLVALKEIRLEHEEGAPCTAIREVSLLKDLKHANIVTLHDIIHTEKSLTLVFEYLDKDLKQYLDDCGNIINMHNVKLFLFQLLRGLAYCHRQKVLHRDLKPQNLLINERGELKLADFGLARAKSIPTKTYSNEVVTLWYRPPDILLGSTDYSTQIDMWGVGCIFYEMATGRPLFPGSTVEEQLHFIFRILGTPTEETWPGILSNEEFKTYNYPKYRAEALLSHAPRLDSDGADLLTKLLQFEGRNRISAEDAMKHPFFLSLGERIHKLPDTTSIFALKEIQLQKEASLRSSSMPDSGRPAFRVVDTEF

Structure (SMILES): Cc1ccc(C(=O)Nc2cccc(C(F)(F)F)c2)cc1Nc1cncc(C(N)=O)c1
- kinase still bound, per cent of control (ADCK4 (human)): 100%
- kinase still bound, per cent of control (ALK (human)): 100%
- kinase still bound, per cent of control (CAMK2D (human)): 100%
- kinase still bound, per cent of control (CAMK4 (human)): 100%
- kinase still bound, per cent of control (CAMKK2 (human)): 100%
- kinase still bound, per cent of control (CDK16 (human)): 100%
- kinase still bound, per cent of control (CHEK1 (human)): 100%
- kinase still bound, per cent of control (CIT (human)): 100%
- kinase still bound, per cent of control (CLK2 (human)): 100%
- kinase still bound, per cent of control (CSF1R (human)): 1.4%
- kinase still bound, per cent of control (CSNK1D (human)): 100%
- kinase still bound, per cent of control (EPHA4 (human)): 6.8%
- kinase still bound, per cent of control (ERBB4 (human)): 100%
- kinase still bound, per cent of control (FER (human)): 100%
- kinase still bound, per cent of control (FGFR1 (human)): 100%
- kinase still bound, per cent of control [1]: 100%
- kinase still bound, per cent of control (HCK (human)): 100%
- kinase still bound, per cent of control (HIPK1 (human)): 100%
- kinase still bound, per cent of control (INSR (human)): 100%
- kinase still bound, per cent of control (IRAK3 (human)): 100%
- kinase still bound, per cent of control (LCK (human)): 1.9%
- kinase still bound, per cent of control (LIMK2 (human)): 100%
- kinase still bound, per cent of control (MAP3K7 (human)): 100%
- kinase still bound, per cent of control (MAP3K9 (human)): 100%
- kinase still bound, per cent of control (MAPK14 (human)): 5%
- kinase still bound, per cent of control (MAPK7 (human)): 100%
- kinase still bound, per cent of control (MARK4 (human)): 100%
- kinase still bound, per cent of control (MERTK (human)): 100%
- kinase still bound, per cent of control (MINK1 (human)): 100%
- kinase still bound, per cent of control (MYLK (human)): 100%
- kinase still bound, per cent of control (NEK1 (human)): 100%
- kinase still bound, per cent of control (NEK6 (human)): 100%
- kinase still bound, per cent of control (PAK2 (human)): 100%
- kinase still bound, per cent of control (PDGFRA (human)): 0.2%
- kinase still bound, per cent of control (PLK4 (human)): 100%
- kinase still bound, per cent of control (PRKACB (human)): 100%
- kinase still bound, per cent of control (PTK6 (human)): 100%
- kinase still bound, per cent of control (RAF1 (human)): 4.5%
- kinase still bound, per cent of control (STK11 (human)): 100%
- kinase still bound, per cent of control (TLK2 (human)): 100%
- kinase still bound, per cent of control (TSSK1B (human)): 100%

Structure (SMILES): COc1cc(N2CCN(C)CC2)ccc1Nc1nc(N)c(C(=O)c2c(Cl)cccc2Cl)s1
- kinase still bound, per cent of control (ADCK4 (human)): 81%
- kinase still bound, per cent of control (ALK (human)): 0.35%
- kinase still bound, per cent of control (CAMK2D (human)): 23%
- kinase still bound, per cent of control (CAMK4 (human)): 99%
- kinase still bound, per cent of control (CAMKK2 (human)): 14%
- kinase still bound, per cent of control (CDK16 (human)): 62%
- kinase still bound, per cent of control (CHEK1 (human)): 79%
- kinase still bound, per cent of control (CIT (human)): 94%
- kinase still bound, per cent of control (CLK2 (human)): 13%
- kinase still bound, per cent of control (CSF1R (human)): 67%
- kinase still bound, per cent of control (CSNK1D (human)): 100%
- kinase still bound, per cent of control (EPHA4 (human)): 90%
- kinase still bound, per cent of control (ERBB4 (human)): 100%
- kinase still bound, per cent of control (FER (human)): 82%
- kinase still bound, per cent of control (FGFR1 (human)): 94%
- kinase still bound, per cent of control [1]: 87%
- kinase still bound, per cent of control (HCK (human)): 100%
- kinase still bound, per cent of control (HIPK1 (human)): 69%
- kinase still bound, per cent of control (INSR (human)): 94%
- kinase still bound, per cent of control (IRAK3 (human)): 90%
- kinase still bound, per cent of control (LCK (human)): 86%
- kinase still bound, per cent of control (LIMK2 (human)): 94%
- kinase still bound, per cent of control (MAP3K7 (human)): 78%
- kinase still bound, per cent of control (MAP3K9 (human)): 100%
- kinase still bound, per cent of control (MAPK14 (human)): 94%
- kinase still bound, per cent of control (MAPK7 (human)): 14%
- kinase still bound, per cent of control (MARK4 (human)): 82%
- kinase still bound, per cent of control (MERTK (human)): 87%
- kinase still bound, per cent of control (MINK1 (human)): 61%
- kinase still bound, per cent of control (MYLK (human)): 18%
- kinase still bound, per cent of control (NEK1 (human)): 75%
- kinase still bound, per cent of control (NEK6 (human)): 100%
- kinase still bound, per cent of control (PAK2 (human)): 100%
- kinase still bound, per cent of control (PDGFRA (human)): 84%
- kinase still bound, per cent of control (PLK4 (human)): 100%
- kinase still bound, per cent of control (PRKACB (human)): 100%
- kinase still bound, per cent of control (PTK6 (human)): 100%
- kinase still bound, per cent of control (RAF1 (human)): 100%
- kinase still bound, per cent of control (STK11 (human)): 100%
- kinase still bound, per cent of control (TLK2 (human)): 93%
- kinase still bound, per cent of control (TSSK1B (human)): 87%

Structure (SMILES): Cn1c(=O)n(-c2ccc(C(C)(C)C#N)cc2)c2c3cc(-c4cnc5ccccc5c4)ccc3ncc21
- kinase still bound, per cent of control (ADCK4 (human)): 100%
- kinase still bound, per cent of control (ALK (human)): 100%
- kinase still bound, per cent of control (CAMK2D (human)): 100%
- kinase still bound, per cent of control (CAMK4 (human)): 100%
- kinase still bound, per cent of control (CAMKK2 (human)): 100%
- kinase still bound, per cent of control (CDK16 (human)): 100%
- kinase still bound, per cent of control (CHEK1 (human)): 100%
- kinase still bound, per cent of control (CIT (human)): 100%
- kinase still bound, per cent of control (CLK2 (human)): 100%
- kinase still bound, per cent of control (CSF1R (human)): 100%
- kinase still bound, per cent of control (CSNK1D (human)): 100%
- kinase still bound, per cent of control (EPHA4 (human)): 100%
- kinase still bound, per cent of control (ERBB4 (human)): 100%
- kinase still bound, per cent of control (FER (human)): 100%
- kinase still bound, per cent of control (FGFR1 (human)): 100%
- kinase still bound, per cent of control [1]: 100%
- kinase still bound, per cent of control (HCK (human)): 100%
- kinase still bound, per cent of control (HIPK1 (human)): 100%
- kinase still bound, per cent of control (INSR (human)): 100%
- kinase still bound, per cent of control (IRAK3 (human)): 100%
- kinase still bound, per cent of control (LCK (human)): 100%
- kinase still bound, per cent of control (LIMK2 (human)): 100%
- kinase still bound, per cent of control (MAP3K7 (human)): 100%
- kinase still bound, per cent of control (MAP3K9 (human)): 100%
- kinase still bound, per cent of control (MAPK14 (human)): 100%
- kinase still bound, per cent of control (MAPK7 (human)): 100%
- kinase still bound, per cent of control (MARK4 (human)): 100%
- kinase still bound, per cent of control (MERTK (human)): 100%
- kinase still bound, per cent of control (MINK1 (human)): 100%
- kinase still bound, per cent of control (MYLK (human)): 100%
- kinase still bound, per cent of control (NEK1 (human)): 100%
- kinase still bound, per cent of control (NEK6 (human)): 100%
- kinase still bound, per cent of control (PAK2 (human)): 100%
- kinase still bound, per cent of control (PDGFRA (human)): 100%
- kinase still bound, per cent of control (PLK4 (human)): 100%
- kinase still bound, per cent of control (PRKACB (human)): 100%
- kinase still bound, per cent of control (PTK6 (human)): 100%
- kinase still bound, per cent of control (RAF1 (human)): 100%
- kinase still bound, per cent of control (STK11 (human)): 100%
- kinase still bound, per cent of control (TLK2 (human)): 100%
- kinase still bound, per cent of control (TSSK1B (human)): 100%
